According to patent US8597645B2, “Cancer treatment with endothelin receptor antagonists” (New York University, priority 1999, dated 2013):
Like-named read-outs stand apart in the source and are kept apart here. Where a SMILES comes first, the peptide text is derived from it.

Experiments:
[1] = test system: caspases (E-cadherin, β-catenin, p120CTN read-out) in SKMEL28 and FM2030 cells; assay: Cell permeable caspase inhibitors on down-regulation of E-cadherin and catenins by ET-1; format: cell-based, human; conditions: inhibitors added 34 hours post ET-1, harvested at 40 hours
Method: (§1) All caspase inhibitors contained a 16 amino-acid signal peptide derived from Kaposi Fibroblast Growth Factor to confer cell permeability (Calbiochem). Inhibitors were added to cells 34 hours post ET-1 stimulation and cells harvested at 40 hours. Crude cytoplasmic fractions were prepared as described for FIG. 2, except that supernatants containing cytoplasmic proteins were transferred to new tubes, supplemented with 0.11 volumes of buffer B (0.3M HEPES pH 7.9, 1.4M KCl, 0.03M MgCl2) and clarified by centrifugation. 10 ug of protein per sample was analyzed for caspase activation. Antibodies: Anti-caspase-8 antibody (UBI), Anti-caspase-3 and 7 (Transduction labs). Super Signal West Femto Maximum Sensitivity Substrate (PIERCE) was used for chemiluminescent detection of caspase proteins. Membranes were initially developed in a 1:5 dilution of the reagent made in H2O. If necessary, blots were briefly rinsed in TBS (10 mM Tris pH 8.0, 150 mM NaCl) and redeveloped with undiluted reagent for visualization of small fragments.
To determine whether caspase activation played a role in down-regulation of E-cadherin by ET-1, the assay was repeated in the presence of cell permeable inhibitors of a variety of different caspases (FIG. 3A). […]

ETB receptors = conditions: cited from earlier work; for inhibition of 125I-labeled ET-1 binding: non cardiovascular tissues: kidney, adrenal gland, cerebellum
ETA receptors = conditions: cited from earlier work; for IC50: read-out: IC50, inhibition of 125I-labeled ET-1 binding
[2] = test system: E-cadherin protein levels in melanocytes (FM2030) and melanoma cells (SKMEL28); assay: Down-regulation of E-cadherin by ET-1, immunoblot analysis of lysates; format: cell-based, human; conditions: for blocking of E-cadherin down-regulation by ET-1: antagonist 100 nM added one hour before 10 nM ET-1, 40 hours
Method: A375, WM-266-4 and WM-1 15 melanoma cells were purchased from the ATCC. Culture conditions were as described in I. M. Shih, et al., Am. J. Pathol., 145:837-45 (1994). Two weeks prior to ET-stimulation, water soluble 12,13-phorbol dibutyrate was substituted for phorbol 12-myristate, 13-acetate in melanocyte medium. ET stimulations of melanocytes were carried out in phorbol-free medium. Cell pellets were incubated for 15 minutes in 6 pellet volumes of RIPA buffer (1% NP4O, 0.5% deoxycholic acid, 10 mM Tris pH 8.3, 150 mM NaCl, 50 mM NaF, 0.2 mM sodium vanadate, 1× protease inhibitors-Boehringer complete). After centrifugation, lysates were quantitated using protein assay reagent (Biorad). 2.5 ug of protein per sample were subjected to SDS-PAGE unless samples were prepared from A375, WM-266-4 or WM-1 15 cells in which case 100 ug protein per sample was used. BQ123 and BQ788 at 100 nM were added to cells one hour before ET-1 addition. Antibodies: anti-E-cadherin (Transduction labs), anti-mouse IgG-HRP (Santa-Cruz). ECL detection system (Amersham). ET-1, ET-3, BQ123, BQ788 (Peninsula labs).
Human neonatal melanocytes (FM2030) and human melanoma cells (SKMEL28) were stimulated with 10 nM ET-1 over a 40 hour time course and protein lysates were examined for E-cadherin protein levels by immunoblot analysis (FIG. 1A). […] E-cadherin protein levels returned to baseline by 72 hours. A delayed and prolonged response to ET-1 has also been reported in other cell types. R. Marsault, et al., Biochem. Biophys. Res. Commun., 179:1408-3 (1991). […] In addition to E-cadherin, expression of the adhesion molecules ICAM 1, CD44 and N-cadherin is altered during melanoma development. M. Y. Hsu, et al., J. Investig. Dermatol. Symp. Proc., 1:188-94 (1996); S. Vermeulen, et al., Pathol. Res. Pract, 192:694-707 (1996).
There are two well characterized ET-1 receptors, an A subtype (ETA) and a B subtype (ETB). A. G. Baynash, et al., Cell, 79:1277 85 (1994). Both subtypes are expressed by melanocytes while most melanoma cells express only ETB. ET-1 binds with equal affinity to both receptor subtypes. G. Imokawa, et al., Biochem. J., 314:305-12 (1996). To determine which subtype mediated the observed response, the assay was repeated in the presence of a selective ETA antagonist (BQ123) and a selective ETB antagonist (BQ788).

[3] = test system: β-catenin and p120CTN protein levels in melanocytes and melanoma cells; assay: Down-regulation of β-catenin and p120CTN by ET-1, immunoblot of crude membrane fractions; format: cell-based, human
Method: To analyze membrane-associated catenin proteins, crude membrane fractions were prepared as follows: cell pellets were resuspended in 6 pellet volumes of buffer A (10 mM HEPES pH 7.5, 1.5 mM MgCl2, 10 mM KCl, 10 mM NaF, 0.2 mM sodium vanadate, 1× protease inhibitors-Boehringer complete) and allowed to swell for 10 min. Cell membranes were disrupted by vortexing for 10 s and membranes pelleted by centrifugation for 10 s. Supernatants containing cytoplasmic proteins were discarded. Membrane pellets were solubilized in RIPA buffer as described above and snap frozen on dry ice. 0.5 ug and 2.5 ug of protein lystes were used to examine levels of β-catenin and p120^CTN proteins respectively. Antibodies: anti-β-catenin and anti-p120^CTN (Transduction labs).
The catenins are cytoplasmic proteins that bind E-cadherin and are critical for E-cadherin function in cellular adhesion. J. M. Daniel, et al., Bloessays, 19: 883-91 (1997). Considering the importance of the catenins in E-cadherin function, the effect of ET-1 stimulation upon the levels of these proteins was studied. In both melanocytes and melanoma cells, ET-1 stimulation decreased β-catenin protein levels and increased its electrophoretic mobility (FIG. 2A). The kinetics of this response correlated well with those of E-cadherin down-regulation. BQ788, a selective ETB antagonist, blocked ET-1 mediated down-regulation of β-catenin (FIG. 2B).

[4] = test system: melanocytes and melanoma cells; assay: Immunofluorescence: subcellular localization of E-cadherin and β-catenin after ET-1; format: cell-based, human; conditions: 10 nM ET-1, 96 hours
Method: Cells were seeded onto collagen coated glass chamber slides in medium supplemented with 10 nM ET-1. At 48 hours, medium was aspirated and replaced with fresh ET-1 supplemented medium. At 96 hours, cells were fixed for 10 minutes in 3.7% formaldehyde/1 mM CaCl2/PBS, permeabilized for 10 minutes in 0.2% Triton X-100/PBS and blocked in 1% BSA/PBS for 10 minutes. Staining with E-cadherin and β-catenin antibodies diluted 1:50 in blocking buffer was performed for 45 minutes followed by a 30 minute incubation with goat-anti-mouse IgG-Cy3 (Jackson Immunoresearch labs) diluted 1:200 in blocking buffer. Cells were washed with PBS in between permeabilization and fixation steps and after antibody incubations.

isolated vascular strips = conditions: read-out: EC50 as contractile agent; cited from earlier work
[5] = test system: caspase-8, caspases-3 and 7 in FM2030 and SKMEL28 cells; assay: Caspase activation by ET-1, immunoblot of crude cytoplasmic extracts; format: cell-based, human
Method: as §1
To determine whether caspase activation played a role in down-regulation of E-cadherin by ET-1, the assay was repeated in the presence of cell permeable inhibitors of a variety of different caspases (FIG. 3A). Strikingly, inhibitors containing the sequences IETD (inhibition of caspase-8) (SEQ ID NO:1) and DEVD (inhibition of caspases-3, 7, 8) (SEQ ID NO:2) were able to block down-regulation of E-cadherin by ET-1. The ‘DEVD’ (SEQ ID NO:2) inhibitor required a 10 fold higher concentration than the ‘IETD’ (SEQ ID NO:1) inhibitor in order to be effective (FIG. 3A. lower panel). Inhibitors specific for caspases 1, 4, 5, 6, 9 and 10 were without effect. […] Timepoints of maximal E-cadherin down-regulation coincided with the appearance of catalytically active caspase-8 subfragments (FIG. 3C, lower panel). Treatment of cells with a cell permeable inhibitor of caspase-8 prevented its proteolytic processing providing further evidence that caspase-8 activation is required for down-regulation of E-cadherin, β-catenin and p120^CTN by ET-1.

[6] = ET-1 stimulation, melanocytes and melanoma cells

## IETD
[1]
  blocking of down-regulation of E-cadherin by ET-1: able to block

## cyclo(D-Glu-L-Ala-allo-D-Ile-L-Leu-D-Trp) [BE-18257B]
ETB receptors; tissues in which ETB receptors predominate, read-out: concentration up to which binding is not inhibited
  IC50: > 100000 nM
ETA receptors; aortic smooth muscle
  IC50: 1400 nM
ETA receptors; cultured aortic smooth muscle cells
  IC50: 500 nM
ETA receptors; ventricle membranes
  IC50: 800 nM

## ET-1: 21 amino-acid peptide secreted by keratinocytes; binds ETA and ETB
ETB receptors
  inhibition of 125I-labeled ET-1 binding: inhibited to the same extent
[2]; 10 nM ET-1, by 40 hours, FM2030 and SKMEL28
  E-cadherin protein level after ET-1 stimulation: marked decrease
[2]; 10 nM ET-1, FM2030 and SKMEL28
  time at which E-cadherin protein levels returned to baseline: ≤ 72 h
[2]; 0.5, 1.0, 10 nM ET-1, 40 hours, melanocytes and melanoma cells
  dose response of E-cadherin down-regulation: dose responsive
[2]; immunoblot of lysates after ET-1
  protein levels of adhesion molecules ICAM 1, CD44 and N-cadherin: no effect
[2]; northern blot analysis
  E-cadherin mRNA levels: no ET-1 dependent decrease
[2]; one additional melanocyte line (CL-NHEM) and 4 additional melanoma lines
  down-regulation of E-cadherin in additional cell lines: down-regulation of E-cadherin was observed in all lines except in A375 and WM 115
[3]; ET-1 stimulation
  p120CTN protein level and electrophoretic mobility: down-regulated and increased the electrophoretic mobility
[3]; [6]
  β-catenin electrophoretic mobility: increased
  β-catenin protein levels: decreased
[3]; northern blot analysis
  β-catenin mRNA levels: failed to reveal an ET-1 dependent decrease
[4]
  E-cadherin staining in melanocytes: loss of concentration of E-cadherin staining at points of cell:cell contact
  E-cadherin staining in melanoma cells: markedly decreased intensity of membranous staining
  β-catenin staining in melanocytes: loss of concentration of β-catenin at lateral cell borders and at points of cell: cell contact
  β-catenin staining in melanoma cells: loss of most of the membranous staining
[4]; bright field micrographs
  melanocyte morphology: large nuclei with prominent nucleoli, abundant cytoplasm, polygonal morphology
Isolated vascular strips
  EC50: 0.4 nM
[5]; SKMEL28 and FM2030 cells
  activation of distal caspases (caspases-3 and 7): failure of ET-1 to activate distal caspases
[5]; after ET-1 stimulation
  duration of ET-1 dependent proteolytic processing of caspase-8: 46 h
  time at which ET-1 dependent proteolytic processing of caspase-8 was first detectable: approximately 36 hours
[5]; melanocytes and melanoma cells
  induction of apoptosis: failure to induce apoptosis
ETA receptors; cardiovascular tissues
  potency of inhibition of 125I-labeled ET-1 binding relative to ET-3: forty to seven hundred times more potently

## CCCC[C@@H](NC(=O)[C@@H](Cc1cn(C(=O)OC)c2ccccc12)NC(=O)[C@H](CC(C)(C)C)NC(=O)N1[C@H](C)CCC[C@@H]1C)C(=O)O [BQ788]
[2]
  blocking of E-cadherin down-regulation by ET-1: blocked
[3]; ETB antagonist with ET-1
  blocking of ET-1 mediated down-regulation of β-catenin: blocked

## ET-3: ET isopeptide, a selective ETB agonist
ETB receptors
  inhibition of 125I-labeled ET-1 binding: inhibited to the same extent
[2]; 10 nM ET-3, 40 hours
  down-regulation of E-cadherin by ET-3: potent down-regulator

## CC(C)C[C@@H]1NC(=O)[C@@H](C(C)C)NC(=O)[C@@H]2CCCN2C(=O)[C@@H](CC(=O)O)NC(=O)[C@@H](Cc2c[nH]c3ccccc23)NC1=O [BQ123, cyclo(D-Asp-Pro-D-Val-Leu-D-Trp)] (HELM PEPTIDE1{L.[dW].[dD].P.[dV]}$PEPTIDE1,PEPTIDE1,1:R1-5:R2$$$V2.0)
[2]
  blocking of E-cadherin down-regulation by ET-1: not
